Experimental data: patent publication US20240366779A1, “SELECTIVE DRUG RELEASE FROM INTERNALIZED CONJUGATES OF BIOLOGICALLY ACTIVE COMPOUNDS” (priority 2021, published 2024)
Numbered stars: 1 amine (or outer) side, 2 acyl side, 3 side chain; on linkers, the order of the positions; unused ones are H or OH. Square brackets hold non-standard residues; d marks the D form. Ends that are not written are not given here. Peptide text beside a SMILES is read from it. * marks the point of attachment. Dolaproine = CO[C@@H]([C@@H]1CCCN1)[C@@H](C)C(=O)O; Propanoyl(3-maleimido) = O=C1C=CC(=O)N1CCC(=O)*; Dil = CC[C@H](C)[C@H](NC)[C@@H](CC(=O)O)OC; Gla = N[C@@H](CC(C(=O)O)C(=O)O)C(=O)O; PABC = O=C(OCc1ccc(N[*:1])cc1)[*:2]; X1 = C[C@@H](N*)[C@@H](O)c1ccccc1; Met(O) = CS(=O)CC[C@H](N)C(=O)O; Cit = NC(=O)NCCC[C@H](N)C(=O)O; NMeV = CN[C@H](C(=O)O)C(C)C; Aib = CC(C)(N)C(=O)O

Assays:
HPAFII cells = test: In vitro cytotoxicity of Ag1 ADCs (CellTiter-Glo, 96 h); type: cell-based; conditions: Tables 3a and 3b, in words
Protocol: In vitro cytotoxicity. The cytotoxicity of a tripeptide-based Antibody Drug Conjugate was measured by a cell proliferation assay employing the protocol described in Promega Corp. Technical Bulletin TB288; and Mendoza et al., 2002, Cancer Res. 62:5485-5488), the methods of which are specifically incorporated by reference herein. Briefly, an aliquot of 40 μl of cell culture containing about 400 cells in medium is deposited in each well of a 384-well, opaque-walled plate. A 10 μL aliquot of free drug or Ligand-Drug Conjugate is added to the experimental wells and incubated for 96 h and are then equilibrated to room temperature for approximately 30 minutes whereupon a volume of CellTiter-Glo™ reagent equal to the volume of cell culture medium present in each well is added. The contents are mixed for 2 minutes on an orbital shaker to induce cell lysis and the plate is incubated at room temperature for 10 minutes to stabilize the luminescence signal for recordation.
The italicized values in Tables 3, 3a, and 3b indicate the percentage of cells remaining after 96 hr incubation at the maximum concentration of drug added. For convenience the numbering for the library members of Tables 2 and 2A are retained for the corresponding Drug linker compounds that are incorporated into the ADC of Tables 3, 3a, and 3b.

[1] = test system: neutrophils and reticulocytes (bone marrow); test: In vivo bone marrow toxicity of non-binding h00 conjugates (neutrophil and reticulocyte counts, tolerability); conditions: rat, in words
From the text: Toxicity Determinations. Each tripeptide-based Drug Linker compound was reacted with a reduced non-binding antibody to provide a non-binding control ADC and injected i.v. into female Sprague Dawley rats at various concentrations. Animals were euthanized on day 4 or 28 post dose.
Having shown that ADC efficacy has been at least retained on replacing the dipeptide with most of the selected tripeptide sequences, differences in in vivo cytotoxicity against normal bone marrow tissue was explored by replacing the antibody targeting the Ag1 antigen with a non-binding control (h00) antibody. Each of the resulting non-targeting conjugates were then administered at 10 mg/Kg to rats, whose blood were analyzed at day 5 post-administration for neutrophil and reticulocyte counts as a proxy for bone marrow toxicity compared to sham treated animals. […]
A subset of non-targeting conjugates were administered at higher doses to rats to determine the impact on bone marrow depletion. Blood from the doses rats were analyzed at day 8 and day 22 post-administration for neutrophil (FIG. 2C) and reticulocyte (FIG. 3C) counts as a proxy for bone marrow toxicity compared to sham treated animals. […]

neutrophil elastase = biological target: T1, neutrophil elastase (Homo sapiens, UniProt P08246); test: Neutrophil elastase assay of 8-load ADCs (QToF MS); type: biochemical; conditions: 8-load ADC, 37 C, 3 h; FIG. 6A
T1 sequence (P08246 30-267): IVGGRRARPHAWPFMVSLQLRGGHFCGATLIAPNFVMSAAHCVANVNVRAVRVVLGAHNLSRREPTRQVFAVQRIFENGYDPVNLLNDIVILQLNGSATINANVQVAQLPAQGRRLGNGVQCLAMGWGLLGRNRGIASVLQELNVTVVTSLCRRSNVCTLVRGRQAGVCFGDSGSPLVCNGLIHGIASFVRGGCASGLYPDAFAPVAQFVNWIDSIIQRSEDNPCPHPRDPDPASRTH
Protocol: To a mixture of 8-load ADC (5 ug), buffer (100 mM tris, 75 mM NaCl, pH 7.5; final concentration), and neutrophil elastase (100 ng) was added water to 20 uL. The reaction was incubated at 37 C for 3 h and then immediately analyzed by a QToF mass spectrometer.

[2] = test system: CD30-expressing ALCL and HL cell lines (DEL, Karpas, KMH2, L428, L540cy); test: In vitro cytotoxicity study of cAC10 ADCs (CellTiter-Glo, 96 hours); type: cell-based; conditions: FIG. 39A-E
Protocol: ALCL and HL cell lines (DEL, DELBVR8F9, Karpas, KMH2, L428, AND L540cy) were plated in 150 uL complete growth media in 96-well, clear-bottomed, black-walled tissue culture treated plates (Corning). Cell plates were placed at 37° C. and 5% CO2 overnight to allow cells to equilibrate. The ADCs were thawed, and 4×8-point serial dilutions were prepared in RPMI-1640+10% fetal bovine serum (FBS). Fifty uL of each dilution were then added to each cell plate in triplicate. Treated cells were incubated at 37° C. and 5% CO2 for 96 hours. Cell viability was assayed using CellTiter-Glo® Reagent (PROMEGA). Raw data were analyzed in Graphpad Prism (San Diego, CA) using a nonlinear, 4-parameter curve fit model [Y=Bottom+(Top−Bottom)/(1+10^((Log EC50−X)*HillSlope))].

[3] = test system: normal human bone marrow homogenate; test: Fluorescence assay: proteolysis of tripeptide library by normal tissue homogenate; type: biochemical; conditions: Table 1A, normalized fluorescence at final time point (275-315 min)
Protocol: (§1) Fluorescence assay. To a 384 well plate was added a mixture of tumor or normal tissue homogenate and citrate buffer (100 mM, pH 4.5; 9 μL) followed by a fluorescently labelled library compound (1 μL; dissolved in 50% MeCN). The reaction was incubated at 37° C. and fluorescence (330 nm excitation, 450 nm emission) was detected several times over a 6-hr. period. The fluorescence fold change was determined by dividing the fluorescence value at each time point with the background fluorescence when no homogenate was added.
Tissue Homogenization. Normal tissue or tumor tissue from mouse xenografts were suspended in buffer (50 mM Tris, 150 mM KCl, pH 7.0) and added to a tube containing Matrix D lysing beads (mpbio). The tissue was homogenized with a Precellys™ 24 homogenizer. The homogenized sample was centrifuged at 1000×g for 10 min and the resulting supernatant was collected then frozen at −80° C. until further use.
The normalized normal tissue fluorescence values are from proteolysis by normal human bone marrow.
That value was then normalized for each peptide in each homogenate by dividing it by the average value for that homogenate. […] The normalized normal tissue values of Table 1 were similarly calculated using homogenized bone marrow.

[4] = test system: tumor tissue homogenates from HPAF-II, Ramos, SK-Mel-5 and SU-DHL-4 xenograft models; test: Fluorescence assay: proteolysis of tripeptide library by tumor tissue homogenate; type: biochemical, mouse; conditions: Table 1A; normalized fluorescence averaged across 4 tumor homogenates
Protocol: as §1
Tissue Homogenization. […]
The normalized fluorescence value for tumor homogenate proteolysis is an averaged value for tumor tissue homogenates derived from four mouse xenograft models.
That value was then normalized for each peptide in each homogenate by dividing it by the average value for that homogenate. […] The normalized tumor tissue values of Table 1 were then determined by averaging the normalized fluorescence value for each peptide across all 4 cancer homogenates that were tested. […] The normalized normal tissue values of Table 1 were similarly calculated using homogenized bone marrow. The Tumor/Normal ratios of Table 1A were determined by dividing the normalized tumor tissue values by the normalized normal tissue values.

Compound	cytotoxicity relative to comparator dipeptide-based ADC (1) (HPAFII cells)	efficacy relative to comparator dipeptide-based ADC (1) (HPAFII cells)	also measured
CC[C@H](C)[C@@H]([C@@H](CC(=O)N1CCC[C@H]1[C@H](OC)[C@@H](C)C(=O)N[C@H](C)[C@@H](O)c1ccccc1)OC)N(C)C(=O)[C@@H](NC(=O)[C@H](C(C)C)N(C)C(=O)OCc1ccc(NC(=O)[C@H](CCC(=O)O)NC(=O)C(C)(C)NC(=O)[C@@H](CC(C)C)NC(=O)CCN2C(=O)C=CC2=O)cc1)C(C)C [compound 38] ({Propanoyl(3-maleimido)}-[dL][Aib]E[PABC][NMeV]V[Dil][Dolaproine]-X1)	less cytotoxic	less cytotoxic and efficacious	toxicity to bone marrow [1]: less toxic to rat bone marrow
CC[C@H](C)[C@@H]([C@@H](CC(=O)N1CCC[C@H]1[C@H](OC)[C@@H](C)C(=O)N[C@H](C)[C@@H](O)c1ccccc1)OC)N(C)C(=O)[C@@H](NC(=O)[C@H](C(C)C)N(C)C(=O)OCc1ccc(NC(=O)[C@H](CCC(=O)O)NC(=O)[C@H](C)NC(=O)[C@@H](CC(C)C)NC(=O)CCN2C(=O)C=CC2=O)cc1)C(C)C [compound 5, mp-dLAE-PABC-MMAE] ({Propanoyl(3-maleimido)}-[dL]AE[PABC][NMeV]V[Dil][Dolaproine]-X1)			percentage of drug cleaved from the heavy chain by neutrophil elastase (neutrophil elastase): lower than that found for non-targeted ADC 37
CC[C@H](C)[C@@H]([C@@H](CC(=O)N1CCC[C@H]1[C@H](OC)[C@@H](C)C(=O)N[C@H](C)[C@@H](O)c1ccccc1)OC)N(C)C(=O)[C@@H](NC(=O)[C@H](C(C)C)N(C)C(=O)OCc1ccc(NC(=O)[C@H](CCC(=O)O)NC(=O)[C@H](CO)NC(=O)[C@H](Cc2ccccc2)NC(=O)CCN2C(=O)C=CC2=O)cc1)C(C)C [Compound 30] ({Propanoyl(3-maleimido)}-FSE[PABC][NMeV]V[Dil][Dolaproine]-X1)	less cytotoxic	similarly efficacious	
CC[C@H](C)[C@@H]([C@@H](CC(=O)N1CCC[C@H]1[C@H](OC)[C@@H](C)C(=O)N[C@H](C)[C@@H](O)c1ccccc1)OC)N(C)C(=O)[C@@H](NC(=O)[C@@H](NC)C(C)C)C(C)C [SGN-1010, MMAE] (H-[NMeV]V[Dil][Dolaproine]-X1)			cytotoxic activity (cell viability) [2]: all cell lines are sensitive
CC[C@H](C)[C@@H]([C@@H](CC(=O)N1CCC[C@H]1[C@H](OC)[C@@H](C)C(=O)N[C@H](C)[C@@H](O)c1ccccc1)OC)N(C)C(=O)[C@@H](NC(=O)[C@H](C(C)C)N(C)C(=O)OCc1ccc(NC(=O)[C@H](CC(=O)O)NC(=O)[C@H](C)NC(=O)[C@@H](CC(C)C)NC(=O)CCN2C(=O)C=CC2=O)cc1)C(C)C [Compound 24] ({Propanoyl(3-maleimido)}-[dL]AD[PABC][NMeV]V[Dil][Dolaproine]-X1)	less cytotoxic	similarly efficacious	
CC[C@H](C)[C@@H]([C@@H](CC(=O)N1CCC[C@H]1[C@H](OC)[C@@H](C)C(=O)N[C@H](C)[C@@H](O)c1ccccc1)OC)N(C)C(=O)[C@@H](NC(=O)[C@H](C(C)C)N(C)C(=O)OCc1ccc(NC(=O)[C@H](CCCNC(N)=O)NC(=O)[C@H](C)NC(=O)[C@@H](CC(C)C)NC(=O)CCN2C(=O)C=CC2=O)cc1)C(C)C [Compound 8] ({Propanoyl(3-maleimido)}-[dL]A[Cit][PABC][NMeV]V[Dil][Dolaproine]-X1)	less cytotoxic	similarly efficacious	
[dL]-Leu-[Met(O)] [DLeu-Leu-Met(O)]			Normalized Normal Tissue [3]: 0.66; Normalized Tumor Tissue [4]: 1.70
CC[C@H](C)[C@@H]([C@@H](CC(=O)N1CCC[C@H]1[C@H](OC)[C@@H](C)C(=O)N[C@H](C)[C@@H](O)c1ccccc1)OC)N(C)C(=O)[C@@H](NC(=O)[C@H](C(C)C)N(C)C(=O)OCc1ccc(NC(=O)[C@H](CC(C(=O)O)C(=O)O)NC(=O)[C@H](C)NC(=O)[C@@H](CC(C)C)NC(=O)CCN2C(=O)C=CC2=O)cc1)C(C)C [Compound 26] ({Propanoyl(3-maleimido)}-[dL]A[Gla][PABC][NMeV]V[Dil][Dolaproine]-X1)	less cytotoxic	similarly efficacious	
CC[C@H](C)[C@@H]([C@@H](CC(=O)N1CCC[C@H]1[C@H](OC)[C@@H](C)C(=O)N[C@H](C)[C@@H](O)c1ccccc1)OC)N(C)C(=O)[C@@H](NC(=O)[C@H](C(C)C)N(C)C(=O)OCc1ccc(NC(=O)[C@H](CCC(=O)O)NC(=O)[C@H](C)NC(=O)[C@@H](C)NC(=O)CCN2C(=O)C=CC2=O)cc1)C(C)C [Compound 22] ({Propanoyl(3-maleimido)}-[dA]AE[PABC][NMeV]V[Dil][Dolaproine]-X1)	less cytotoxic	similarly efficacious	
